Test results reported in patent publication US20060074032A1 (Academic Pharmaceuticals, Inc., priority 2000, published 2006).
Read-outs that look alike come from different tables or passages of the source.

Columns and labels:
IKs currents = molecular target: T1, IKs currents (Homo sapiens, UniProt P51787); conditions: cited from earlier work
T1 construct: expressed in transfected cells; host or cells: Xenopus oocytes injected with cRNA (pSP64 poly(A) constructs)

rat ileum = assay: Rat ileum GI contractility (isometric muscle contraction); conditions: for Deflection Magnitude, percentage change from control / Slow Wave Amplitude, percentage change from control / Slow Wave Frequency, percentage change from control: n = 5
Protocol: (§1) The ileum was harvested and placed in warmed (37° C.) Krebs […] buffer and oxygenated (95% O2 and 5% CO2). Segments approximately 4.5 cm long were placed on a transducer (Gilson Instruments) and a preload of 2 gm was applied. The tissue was placed in a chamber and bathed in Tyrode's solution (37.5° C.) and gassed with 95% O2 and 5% CO2. Muscle contractions were measured isometrically. After stable contractions were obtained, a study compound was added to the tissue bath and recordings made until a new steady state of contraction was obtained. Following a washout period, contractions were recorded during a new steady state period, then the procedure repeated with at a second dose of the drug being evaluated. Changes in contraction magnitude were recorded as the percentage change from baseline. This procedure is a modification of the technique described by Van Nueten and associates (Van Nueten, et al., Inhibition of dopamine receptors in the stomach: an explanation of the gastrokinetic properties of domperidone. Life Sciences 1978, 23:453-458).

rat colon = assay: Rat colon GI contractility (deflection magnitude); conditions: n = 5 per group
Protocol: as §1, with “23:453-458). […] A segment of rat colon was suspended in a constant temperature bath as described above, and the baseline parameters measured oxygenated Tyrode's solution without erythromycin or chiral isolates.” for “23:453-458).”

T1 sequence (P51787 whole entry): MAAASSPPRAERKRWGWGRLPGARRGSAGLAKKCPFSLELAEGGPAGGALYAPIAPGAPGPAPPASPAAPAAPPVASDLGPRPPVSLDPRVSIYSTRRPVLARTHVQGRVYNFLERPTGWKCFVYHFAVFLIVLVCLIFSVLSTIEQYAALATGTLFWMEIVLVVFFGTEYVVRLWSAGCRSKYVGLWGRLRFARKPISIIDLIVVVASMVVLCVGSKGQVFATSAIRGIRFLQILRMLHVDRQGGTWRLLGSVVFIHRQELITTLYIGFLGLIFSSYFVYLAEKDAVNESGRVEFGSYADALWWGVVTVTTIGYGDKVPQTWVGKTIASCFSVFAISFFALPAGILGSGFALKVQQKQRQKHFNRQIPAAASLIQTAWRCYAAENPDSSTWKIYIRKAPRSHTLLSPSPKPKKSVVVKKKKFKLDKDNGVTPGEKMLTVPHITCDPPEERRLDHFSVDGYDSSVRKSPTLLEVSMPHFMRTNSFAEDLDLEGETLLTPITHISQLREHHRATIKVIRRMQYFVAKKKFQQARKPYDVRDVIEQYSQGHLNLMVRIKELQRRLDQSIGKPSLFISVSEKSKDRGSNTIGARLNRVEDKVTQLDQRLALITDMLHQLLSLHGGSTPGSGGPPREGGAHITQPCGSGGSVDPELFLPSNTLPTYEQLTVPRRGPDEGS

Row | Compound | Reduction of IKs currents (IKs currents; quinidine 10^−4 M) [%] | Reduction of IKs currents (IKs currents; quinidine 10^−6 M) [%] | Effect on slow contractile wave amplitude, slow wave frequency and magnitude of deflection, in words (rat ileum; 10^−7 M to 10^−5 M) | Deflection Magnitude, percentage change from control (rat ileum; erythromycin 10^−5 M) [%] | Slow Wave Amplitude, percentage change from control (rat ileum; erythromycin 10^−5 M) [%] | Slow Wave Frequency, percentage change from control (rat ileum; erythromycin 10^−5 M) [%] | Deflection Magnitude, percentage change from control (rat ileum; erythromycin 10^−6 M) [%] | Slow Wave Amplitude, percentage change from control (rat ileum; erythromycin 10^−6 M) [%] | Slow Wave Frequency, percentage change from control (rat ileum; erythromycin 10^−6 M) [%] | Deflection Magnitude, percentage change from control (rat ileum; erythromycin 10^−7 M) [%] | Slow Wave Amplitude, percentage change from control (rat ileum; erythromycin 10^−7 M) [%] | Slow Wave Frequency, percentage change from control (rat ileum; erythromycin 10^−7 M) [%] | Percent Change in Deflection Magnitude, change from control (rat colon; 10^−5 M) [%] | Percent Change in Deflection Magnitude, change from control (rat colon; 10^−6 M) [%] | Percent Change in Deflection Magnitude, change from control (rat colon; 10^−7 M) [%]
1 | C=C[C@H]1C[N@@]2CC[C@H]1C[C@@H]2[C@@H](O)c1ccnc2ccc(OC)cc12 [quinidine] | 52 | 14 |  |  |  |  |  |  |  |  |  |  |  |  | 
2 | Erythromycin |  |  | dose-related increase | 33 | 17 | 27 | 22 | 15 | 21 | 14 | 12 | 14 | 95 | 70 | 33
